From patent publication EP0391180A2, “Peptide derivatives of amino acids having a renin-inhibiting effect” (F. HOFFMANN-LA ROCHE AG, priority 1989, dated 1990) come the findings set out here.

The first experiment addresses T1, Human-Renin (Homo sapiens, UniProt P00797).
T1 sequence (P00797 67-406): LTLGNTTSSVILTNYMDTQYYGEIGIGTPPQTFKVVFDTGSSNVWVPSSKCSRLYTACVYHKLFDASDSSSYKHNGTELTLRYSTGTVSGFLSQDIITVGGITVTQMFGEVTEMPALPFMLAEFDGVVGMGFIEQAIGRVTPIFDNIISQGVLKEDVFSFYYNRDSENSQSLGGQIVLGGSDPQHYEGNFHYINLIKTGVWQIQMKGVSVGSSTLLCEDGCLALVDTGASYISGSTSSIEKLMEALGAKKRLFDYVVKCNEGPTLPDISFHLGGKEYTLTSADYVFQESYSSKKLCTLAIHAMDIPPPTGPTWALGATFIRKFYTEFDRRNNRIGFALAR
In words: In vitro test with pure human renin (angiotensin I production from human tetradecapeptide renin substrate, measured by RIA).
Conditions: not given
In kind it is biochemical. On the procedure:
In vitro-Test mit reinem Human-Renin
Der Test wird in Eppendorf Röhrchen durchgeführt. Die Inkubationsmischung besteht aus (1) 100 µl Human-Renin in Puffer A (0,1M Natriumphosphatlösung, pH 7,4, enthaltend 0,1% Rinderserumalbumin, 0,1 % Natriumazid und 1 mM Aethylendiamintetraessigsäure), genügend für eine Renin-Aktivität von 2-3 ng Angiotensin I/ ml/Std.; (2) 145 µl Puffer A; (3) 30 µl von 10 µM humanem Tetradekapeptid-Reninsubstrat (hTD) in 10 mM Salzsäure; (4) 15 µl Dimethylsulfoxid mit bzw. ohne Hemmer und (5) 10 µl einer 0,03 molaren Lösung von Hydroxychinolinsulfat in Wasser.
Die Proben werden drei Stunden bei 37°C bzw. 4°C in Triplikaten inkubiert. 2 x 100 µl Proben pro Versuchsröhrchen werden dann verwendet, um die Produktion von Angiotensin I via RIA (standard radioimmunoassay; Clinical Assay solid phase kit) zu messen. Kreuzreaktivitäten der verwendeten Antikörper im RIA sind: Angiotensin I 100 %; Angiotensin II 0,0013 %; hTD (Angiotensin I-Val-Ile-His-Ser-OH) 0,09 %. Die Produktion von Angiotensin I wird durch die Differenz zwischen dem Versuch bei 37°C und demjenigen bei 4°C bestimmt.
Folgende Kontrollen werden mitgeführt: • (a) Inkubation von hTD-Proben ohne Renin und ohne Hemmer bei 37°C und 4°C. Die Differenz zwischen diesen beiden Werten ergibt den Grundwert der Angiotensin I-Produktion. • (b) Inkubation von hTD-Proben mit Renin, jedoch ohne Hemmer bei 37°C und 4°C. Die Differenz zwischen diesen Werten ergibt den Maximalwert der Angiotensin I-Produktion.
In jeder Probe wird von der ermittelten Angiotensin I-Produktion der Grundwert der Angiotensin I-Produktion abgezogen. Die Differenz zwischen dem Maximalwert und dem Grundwert ergibt den Wert der maximalen Substrathydrolyse (=100%) durch Renin.
Die Resultate werden als IC₅₀-Werte angegeben, welche diejenige Konzentration des Hemmers bezeichnen, bei welcher die enzymatische Aktivität um 50% gehemmt wird. Die IC₅₀-Werte werden aus einer linearen Regressionskurve aus einem logit-log plot ermittelt.
As for `CC(C)(C)OC(=O)N1CCC[C@@H]1C(=O)N[C@@H](Cc1ccccc1)C(=O)N[C@@H](Cc1c[nH]cn1)C(=O)N[C@@H](CC1CCCCC1)C(O)CC1CCCCC1` (single isomer, unassigned) [F], the IC50 was 1 nM.

The experiment is the same for the next values; noted with them: pure human renin, substrate hTD, pH 7,4, incubation 3 h at 37°C vs 4°C, angiotensin I by RIA; IC50 from logit-log plot; read-out: IC₅₀-Werte.
Take `CC(C)(C)OC(=O)N[C@@H](Cc1ccccc1)C(=O)N[C@@H](Cc1c[nH]cn1)C(=O)N[C@@H](CC1CCCCC1)C(O)CC1CCCCC1` (single isomer, unassigned) [E]: the IC50 came out at 2.6 nM.
With `C=C[C@H](CC)C[C@H](O)[C@H](CC1CCCCC1)NC(=O)[C@H](Cc1c[nH]cn1)NC(=O)[C@H](Cc1ccccc1)NC(=O)[C@H]1CCCN1C(=O)OC(C)(C)C` [A, t-Butyl (R)-2-[[(S)-α-[[(S)-1-[[(1S,2S,4R)-1-(cyclohexylmethyl)-2-hydroxy-4-äthyl-5-hexenyl]carbamoyl]-2-imidazol-4-yläthyl]carbamoyl]phenäthyl]carbamoyl]-1-pyrrolidincarboxylat], the IC50 was 0.2 nM.
The same measure, in the same setting: then `CCC(CC)C[C@H](O)[C@H](CC1CCCCC1)NC(=O)[C@H](Cc1c[nH]cn1)NC(=O)[C@H](Cc1ccccc1)NC(=O)[C@H]1CCCN1C(=O)OC(C)(C)C` [B, t-Butyl (R)-2-[[(S)-α-[[(S)-1-[[(1S,2S)-1-(cyclohexylmethyl)-2-hydroxy-4-äthylhexyl]carbamoyl]-2-imidazol-4-yläthyl]carbamoyl]phenäthyl]carbamoyl]-1-pyrrolidincarboxylat], with 1 nM; and `C=C[C@H](CC)C[C@H](O)[C@H](CC1CCCCC1)NC(=O)[C@H](Cc1c[nH]cn1)NC(=O)[C@@H](CC(=O)C(C)(C)C)Cc1ccccc1` [C, (S)-N-[(1S,2S,4R)-1-(Cyclohexylmethyl)-4-äthyl-2-hydroxy-5-hexenyl]-α-[(R)-α-(3,3-dimethyl-2-oxobutyl)hydrocinnamamido]imidazol-4-propionamid], with 4.2 nM; and `C=C[C@H](CC)C[C@H](O)[C@H](CC1CCCCC1)NC(=O)[C@H](Cc1cnc[nH]1)NC(=O)[C@H](Cc1ccccc1)CS(=O)(=O)C(C)(C)C` [D, (S)-α-[(S)-α-[(t-Butylsulfonyl)methyl]hydrocinnamamido]-N-[(1S,2S,4R)-1-(cyclohexylmethyl)-4-äthyl-2-hydroxy-5-hexenyl]imidazol-5-propionamid], with 1 nM.
As to `CCC(F)(CC)C[C@H](O)[C@H](CC1CCCCC1)NC(=O)[C@H](Cc1c[nH]cn1)NC(=O)[C@@H](CC(=O)C(C)(C)C)Cc1ccccc1` [G, (S)-N-[(1S,2S)-1-(Cyclohexylmethyl)-4-äthyl-4-fluor-2-hydroxyhexyl]-α-[(R)-α-(3,3-dimethyl-2-oxobutyl)hydrocinnamamido]imidazol-4-propionamid], the IC50 worked out at 5 nM.
